Experimental data published in patent US20240360113A1, “AMINOARYL-INTEGRIN AGONISTS COMPOUNDS” (Texas Heart Institute, priority 2021, published 2024).

How the values were obtained:
αLβ2/ICAM-1 = biological target: T1, αLβ2/ICAM-1 (Homo sapiens, UniProt P05107+P20701); experiment: Static cell adhesion assay, HSB cells on ICAM-1 (LFA-1; LAD); format: cell-based; details: RFU of compound / RFU of THI0349, both at the same concentration
T1 construct: The Jurkat (VCAM-1 assays) and HSB (ICAM-1 assays) cell lines were obtained from American Type Culture Collection; endogenous in cells; host or cells: HSB (ATCC)
Method: For in vitro cell adhesion assays, compounds were dissolved in DMSO to make a series of stock solutions such that a 1:100 dilution in assay buffer would yield the desired final working concentrations in 1% DMSO (vehicle). Human VCAM-1 and ICAM-1 were purchased from R&D Systems (Minneapolis, MN). The Jurkat (VCAM-1 assays) and HSB (ICAM-1 assays) cell lines were obtained from American Type Culture Collection (Manassas, VA) and were maintained in recommended culture media.
Assays were performed as previously described in Vanderslice et al., (2010), Biochem Biophys Res Commun 400, 619-624; and Vanderslice et al., (2013) J Biol Chem 288, 19414-19428. VCAM-1 or ICAM-1 ligand in 50 μL of 50 mM Tris-HCl (pH 7.4), 150 mM NaCl, (TBS) was added to wells of a 96-well plate and allowed to coat overnight at 4° C. To maximize the window to evaluate agonist activity, a sub-optimal coating concentration of ligand was used, typically 0.5 and 5 μg/mL in 50 μL TBS for VCAM-1 and ICAM-1 respectively. This ligand concentration corresponded approximately to that which would yield <5% adhesion as determined by dose-response curves. Briefly, 2×10^6 cells were labeled for 30 minutes with calcein-AM (Molecular Probes), washed, resuspended in binding buffer, and added to triplicate wells of ligand-coated plates (2×10^5 cells/well) that had been blocked with 2% BSA. After a 30-minute incubation at 37° C., the plates were washed 3 times with binding buffer, the adherent cells were lysed, and fluorescence was measured on a Tecan Safire^2 plate reader. The binding buffer was PBS with 1 mM MgCl2, 50% FBS for α4β1/VCAM-1 assays and PBS with 2 mM MgCl2, 5 mM EGTA, 50% FBS for αLβ2/ICAM-1 assays. EC50 is defined as the concentration of compound required to achieve 50% of the maximal response.
In relation to LAD (Leukocyte Adhesion Deficiency), LFA-1 ratios are determined by dividing the relative fluorescence units (RFU) of each compound at a concentration of 3 μM over that of the reference standard of THI0349, also at 3 μM, (RFU Compound/RFU of THI0349). Log Ps were calculated by either Chemdraw® version 12 (CambridgeSoft) or ACD/Chemsketch® (ACD/Labs).

α4β1/VCAM-1 = biological target: T2, α4β1/VCAM-1 (Homo sapiens, UniProt P05556+P13612); experiment: Static cell adhesion assay, Jurkat cells on VCAM-1 (VLA-4 agonist activity); format: cell-based; details: EC50 relative to THI0349 (average 11 uM) run on the same plate; Jurkat cells, 50% FBS
T2 construct: The Jurkat (VCAM-1 assays) and HSB (ICAM-1 assays) cell lines were obtained from American Type Culture Collection; endogenous in cells; host or cells: Jurkat (ATCC)
Method in brief: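 Calcein-labelled Jurkat cells (2×10^5/well) were added to wells coated with a sub-optimal level of human VCAM-1 (0.5 μg/mL) in PBS, 1 mM MgCl2, 50% FBS with compound in 1% DMSO. After 30 min at 37° C. and washing, adherent-cell fluorescence was read. EC50 was the concentration giving 50% of maximal response.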

T2 sequence (P13612 34-1032): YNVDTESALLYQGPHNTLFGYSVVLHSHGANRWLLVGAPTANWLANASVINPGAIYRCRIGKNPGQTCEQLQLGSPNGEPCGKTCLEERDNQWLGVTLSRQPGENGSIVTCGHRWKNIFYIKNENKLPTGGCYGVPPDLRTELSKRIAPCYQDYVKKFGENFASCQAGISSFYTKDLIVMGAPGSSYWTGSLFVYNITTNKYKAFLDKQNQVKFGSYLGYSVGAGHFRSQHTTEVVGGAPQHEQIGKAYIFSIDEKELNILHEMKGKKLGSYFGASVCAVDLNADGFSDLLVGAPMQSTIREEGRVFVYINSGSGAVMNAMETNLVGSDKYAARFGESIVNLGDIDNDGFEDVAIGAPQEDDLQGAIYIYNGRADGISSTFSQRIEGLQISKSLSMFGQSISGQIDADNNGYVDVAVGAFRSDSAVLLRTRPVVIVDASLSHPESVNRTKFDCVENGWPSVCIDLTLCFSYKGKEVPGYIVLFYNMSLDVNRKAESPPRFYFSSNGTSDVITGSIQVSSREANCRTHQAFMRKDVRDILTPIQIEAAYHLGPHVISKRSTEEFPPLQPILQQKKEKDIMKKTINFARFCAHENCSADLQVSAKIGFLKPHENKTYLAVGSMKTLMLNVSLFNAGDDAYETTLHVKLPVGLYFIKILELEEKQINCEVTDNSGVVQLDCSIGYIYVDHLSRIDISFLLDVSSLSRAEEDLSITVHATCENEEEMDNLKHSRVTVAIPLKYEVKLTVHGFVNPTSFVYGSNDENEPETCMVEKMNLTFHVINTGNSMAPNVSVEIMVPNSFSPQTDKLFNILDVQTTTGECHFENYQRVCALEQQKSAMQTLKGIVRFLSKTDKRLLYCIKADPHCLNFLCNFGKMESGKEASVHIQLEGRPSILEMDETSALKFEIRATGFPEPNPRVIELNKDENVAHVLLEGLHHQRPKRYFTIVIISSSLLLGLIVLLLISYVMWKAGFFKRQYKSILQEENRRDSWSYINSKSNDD
T2 sequence (P05556 21-798): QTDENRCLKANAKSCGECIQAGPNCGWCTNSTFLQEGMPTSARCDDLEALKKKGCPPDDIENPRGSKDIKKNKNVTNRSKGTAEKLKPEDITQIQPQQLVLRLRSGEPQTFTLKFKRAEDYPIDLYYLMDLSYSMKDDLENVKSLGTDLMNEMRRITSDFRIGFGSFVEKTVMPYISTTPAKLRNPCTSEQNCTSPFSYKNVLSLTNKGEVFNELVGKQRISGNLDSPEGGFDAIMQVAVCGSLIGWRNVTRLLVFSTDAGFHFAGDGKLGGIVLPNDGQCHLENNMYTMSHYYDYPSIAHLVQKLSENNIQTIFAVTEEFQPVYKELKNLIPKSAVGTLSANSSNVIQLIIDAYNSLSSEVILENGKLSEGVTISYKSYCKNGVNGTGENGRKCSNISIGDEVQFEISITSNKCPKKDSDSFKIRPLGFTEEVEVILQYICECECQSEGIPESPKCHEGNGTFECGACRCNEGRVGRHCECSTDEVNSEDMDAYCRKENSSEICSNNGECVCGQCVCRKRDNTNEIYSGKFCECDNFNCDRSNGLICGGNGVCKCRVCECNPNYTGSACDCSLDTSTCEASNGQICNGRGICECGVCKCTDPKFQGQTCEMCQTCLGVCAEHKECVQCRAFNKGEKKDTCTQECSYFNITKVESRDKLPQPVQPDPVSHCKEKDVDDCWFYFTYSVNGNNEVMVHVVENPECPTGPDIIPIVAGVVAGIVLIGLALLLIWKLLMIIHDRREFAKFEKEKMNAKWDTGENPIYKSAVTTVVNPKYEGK
T1 sequence (P20701 26-1170): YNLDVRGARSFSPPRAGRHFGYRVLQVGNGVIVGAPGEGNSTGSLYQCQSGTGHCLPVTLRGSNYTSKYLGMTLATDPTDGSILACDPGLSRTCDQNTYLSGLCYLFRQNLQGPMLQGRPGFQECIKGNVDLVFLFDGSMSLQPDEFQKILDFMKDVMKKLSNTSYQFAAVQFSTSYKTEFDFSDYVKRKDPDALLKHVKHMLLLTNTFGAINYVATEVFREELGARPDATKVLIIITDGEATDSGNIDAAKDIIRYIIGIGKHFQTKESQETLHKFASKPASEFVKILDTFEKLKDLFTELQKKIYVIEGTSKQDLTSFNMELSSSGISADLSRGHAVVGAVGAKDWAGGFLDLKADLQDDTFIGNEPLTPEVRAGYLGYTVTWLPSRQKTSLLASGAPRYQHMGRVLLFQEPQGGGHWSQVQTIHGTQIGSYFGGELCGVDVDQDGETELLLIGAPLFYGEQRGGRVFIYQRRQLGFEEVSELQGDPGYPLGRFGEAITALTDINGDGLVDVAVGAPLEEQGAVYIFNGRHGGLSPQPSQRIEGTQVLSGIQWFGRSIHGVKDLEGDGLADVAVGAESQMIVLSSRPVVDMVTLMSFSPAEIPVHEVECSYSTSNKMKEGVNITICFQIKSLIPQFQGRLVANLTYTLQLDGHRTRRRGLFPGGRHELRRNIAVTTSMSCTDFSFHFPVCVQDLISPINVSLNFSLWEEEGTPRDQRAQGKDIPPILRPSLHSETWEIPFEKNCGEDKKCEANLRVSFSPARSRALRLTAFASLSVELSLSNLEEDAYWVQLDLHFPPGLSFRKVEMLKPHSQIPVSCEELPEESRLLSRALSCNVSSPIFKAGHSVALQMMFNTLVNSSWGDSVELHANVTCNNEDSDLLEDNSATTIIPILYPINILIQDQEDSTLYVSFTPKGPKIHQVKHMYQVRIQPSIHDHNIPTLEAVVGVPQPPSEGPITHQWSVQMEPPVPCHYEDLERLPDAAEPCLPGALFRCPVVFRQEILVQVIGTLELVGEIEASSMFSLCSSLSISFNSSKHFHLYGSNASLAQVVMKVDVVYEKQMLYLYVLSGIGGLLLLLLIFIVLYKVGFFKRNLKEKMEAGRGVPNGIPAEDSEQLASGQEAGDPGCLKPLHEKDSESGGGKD
T1 sequence (P05107 23-769): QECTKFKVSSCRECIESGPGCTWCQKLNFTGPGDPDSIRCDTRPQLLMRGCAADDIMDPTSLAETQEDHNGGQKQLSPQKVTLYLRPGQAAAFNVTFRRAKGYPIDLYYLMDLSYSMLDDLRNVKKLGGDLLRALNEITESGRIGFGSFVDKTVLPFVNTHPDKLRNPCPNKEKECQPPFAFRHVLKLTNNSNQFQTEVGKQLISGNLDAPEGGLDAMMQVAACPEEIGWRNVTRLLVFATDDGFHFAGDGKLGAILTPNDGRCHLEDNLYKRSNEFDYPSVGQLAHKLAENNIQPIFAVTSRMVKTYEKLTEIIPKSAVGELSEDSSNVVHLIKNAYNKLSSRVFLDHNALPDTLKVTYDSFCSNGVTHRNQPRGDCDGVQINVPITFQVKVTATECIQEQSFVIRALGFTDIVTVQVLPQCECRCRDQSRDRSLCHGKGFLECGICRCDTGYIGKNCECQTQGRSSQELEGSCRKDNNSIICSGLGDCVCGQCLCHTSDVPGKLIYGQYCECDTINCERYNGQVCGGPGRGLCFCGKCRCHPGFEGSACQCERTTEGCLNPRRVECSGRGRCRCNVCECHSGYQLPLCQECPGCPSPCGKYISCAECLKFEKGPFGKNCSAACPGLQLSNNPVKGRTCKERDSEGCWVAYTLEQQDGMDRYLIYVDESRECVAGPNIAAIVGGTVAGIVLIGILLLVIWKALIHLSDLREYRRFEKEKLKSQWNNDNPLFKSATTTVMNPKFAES

Structure (SMILES)	LAD Raw Fluorescence Units against LFA-1; Dose 3 µM; Ratio of raw counts Compound/THI0349 (αLβ2/ICAM-1)	Group against VCAM (α4β1/VCAM-1)
COc1cccc(CN(Cc2ccc(-n3cccn3)cc2)c2nc(C)cs2)c1 [Compound 98, N-(4-(1H-pyrazol-1-yl)benzyl)-N-(3-methoxybenzyl)-4-methylthiazol-2-amine]	0.03	III (Group III more than five times the EC50 of THI0349)
COc1cccc(CN(Cc2cccc(OC)c2)c2nc(COCCOCc3ccccc3C)cs2)c1 [Compound 60, N,N-bis(3-methoxybenzyl)-4-((2-((2-methylbenzyl)oxy)ethoxy)methyl)thiazol-2-amine]	0.92	I (Group I maintains at least the same potency or better up to more than twice that of the EC50 of THI0349 ran on the same plate)
COc1cccc(CN(Cc2cccc(OC)c2)c2nc(COCCN3CCc4ccccc43)cs2)c1 [Compound 88, 4-((2-(indolin-1-yl)ethoxy)methyl)-N,N-bis(3-methoxybenzyl)thiazol-2-amine]	0.18	II (Group II is more than twice that of THI0349 but less than five times THI0349's EC50)
COc1cccc(CN(Cc2cccc(OC)c2)c2nc(COCCOCCOc3cccc(C#N)c3)cs2)c1 [Compound 45, 3-(2-(2-((2-(bis(3-methoxybenzyl)amino)thiazol-4-yl)methoxy)ethoxy)ethoxy)benzonitrile]	0.76	I (Group I maintains at least the same potency or better up to more than twice that of the EC50 of THI0349 ran on the same plate)
COc1cccc(CN(Cc2cccc(-n3cccn3)c2)c2nc(CN3CCOCC3)cs2)c1 [Compound 80, N-(3-(1H-pyrazol-1-yl)benzyl)-N-(3-methoxybenzyl)-4-(morpholinomethyl)thiazol-2-amine]	0.53	I (Group I maintains at least the same potency or better up to more than twice that of the EC50 of THI0349 ran on the same plate)
COc1cccc(CN(Cc2ccc3[nH]ncc3c2)c2nc(CN3CCOCC3)cs2)c1 [Compound 77, N-((1H-indazol-5-yl)methyl)-N-(3-methoxybenzyl)-4-(morpholinomethyl)thiazol-2-amine]	0.34	II (Group II is more than twice that of THI0349 but less than five times THI0349's EC50)
COc1ccc(CCCNC(=O)c2cnc(N(Cc3cccc(OC)c3)Cc3cccc(OC)c3)o2)cc1 [Compound 22, 2-(bis(3-methoxybenzyl)amino)-N-(3-(4-methoxyphenyl)propyl)oxazole-5-carboxamide]	0.69	I (Group I maintains at least the same potency or better up to more than twice that of the EC50 of THI0349 ran on the same plate)
CCOC(=O)c1csc(N(Cc2ccc(-n3ccnc3)cc2)Cc2cccc(OC)c2)n1 [Compound 113, ethyl 2-((4-(1H-imidazol-1-yl)benzyl)(3-methoxybenzyl)amino)thiazole-4-carboxylate]	0.64	II (Group II is more than twice that of THI0349 but less than five times THI0349's EC50)
COc1cccc(CN(Cc2cccc(OC)c2)c2nc(COCCOc3ccccc3)cs2)c1 [Compound 52, N,N-bis(3-methoxybenzyl)-4-((2-phenoxyethoxy)methyl)thiazol-2-amine]	1.2	II (Group II is more than twice that of THI0349 but less than five times THI0349's EC50)
COc1cccc(CN(Cc2cccc(OC)c2)c2nc(COCCN3CCCCC3)cs2)c1 [Compound 65, N,N-bis(3-methoxybenzyl)-4-((2-(piperidin-1-yl)ethoxy)methyl)thiazol-2-amine]	0.29	I (Group I maintains at least the same potency or better up to more than twice that of the EC50 of THI0349 ran on the same plate)
CCOC(=O)c1ccc(N(Cc2cccc(OC)c2)Cc2cccc(OC)c2)nc1 [Compound 95, ethyl 6-(bis(3-methoxybenzyl)amino)nicotinate]	0.09	III (Group III more than five times the EC50 of THI0349)
COc1cccc(CN(Cc2cccc(OC)c2)c2nc(C)cs2)c1 [Compound 29, N,N-bis(3-methoxybenzyl)-4-methylthiazol-2-amine]	0.88	III (Group III more than five times the EC50 of THI0349)
COc1cccc(CN(Cc2cccc(OC)c2)c2nc(COCCOCCOc3cccc(N(C)C)c3)cs2)c1 [Compound 41, 4-((2-(2-(3-(dimethylamino)phenoxy)ethoxy)ethoxy)methyl)-N,N-bis(3-methoxybenzyl)thiazol-2-amine]	1.3	I (Group I maintains at least the same potency or better up to more than twice that of the EC50 of THI0349 ran on the same plate)
COc1cccc(CN(Cc2cccc(OC)c2)c2nc(CN3CCOCC3)cs2)c1 [Compound 67, N,N-bis(3-methoxybenzyl)-4-(morpholinomethyl)thiazol-2-amine]	1.2	I (Group I maintains at least the same potency or better up to more than twice that of the EC50 of THI0349 ran on the same plate)
COc1ccc(CCCNC(=O)c2csc(N(Cc3cccc(OC)c3)Cc3cccc(OC)c3)n2)cc1 [Compound 23, 2-(bis(3-methoxybenzyl)amino)-N-(3-(4-methoxyphenyl)propyl)thiazole-4-carboxamide]	0.85	I (Group I maintains at least the same potency or better up to more than twice that of the EC50 of THI0349 ran on the same plate)
COc1cccc(CN(Cc2cccc(OC)c2)c2nc(COCCOCCOc3ccc(N(C)C)cc3)cs2)c1 [Compound 46, 4-((2-(2-(4-(dimethylamino)phenoxy)ethoxy)ethoxy)methyl)-N,N-bis(3-methoxybenzyl)thiazol-2-amine]	1.5	I (Group I maintains at least the same potency or better up to more than twice that of the EC50 of THI0349 ran on the same plate)
COc1ccc(CCCOCc2csc(N(Cc3cccc(OC)c3)Cc3cccc(OC)c3)n2)cc1 [Compound 39, N,N-bis(3-methoxybenzyl)-4-((3-(4-methoxyphenyl)propoxy)methyl)thiazol-2-amine]	0.23	III (Group III more than five times the EC50 of THI0349)
COc1cccc(CN(Cc2cccc(OC)c2)c2nc(COCCN3CCN(C)CC3)cs2)c1 [Compound 66, N,N-bis(3-methoxybenzyl)-4-((2-(4-methylpiperazin-1-yl)ethoxy)methyl)thiazol-2-amine]	0.27	II (Group II is more than twice that of THI0349 but less than five times THI0349's EC50)
COc1cccc(CN(Cc2cccc(OC)c2)c2nc(COCCOCCOCc3ccccc3Cl)cs2)c1 [Compound 56, 4-((2-(2-((2-chlorobenzyl)oxy)ethoxy)ethoxy)methyl)-N,N-bis(3-methoxybenzyl)thiazol-2-amine]	1.2	III (Group III more than five times the EC50 of THI0349)
COc1cccc(CN(C)c2nc(CN3CCOCC3)cs2)c1 [Compound 111, N-(3-methoxybenzyl)-N-methyl-4-(morpholinomethyl)thiazol-2-amine]	0.06	III (Group III more than five times the EC50 of THI0349)
